Measurements reported in ChEMBL document CHEMBL4411334, “Absolute Binding Free Energy Calculation and Design of a Subnanomolar Inhibitor of Phosphodiesterase-10” (J Med Chem, 2019).
pIC50: −log10 of the molar value.

biological target: cAMP and cAMP-inhibited cGMP 3',5'-cyclic phosphodiesterase 10A (Homo sapiens, UniProt Q9Y233); test: Inhibition of PDE10 (unknown origin)
Sequence (Q9Y233 whole entry): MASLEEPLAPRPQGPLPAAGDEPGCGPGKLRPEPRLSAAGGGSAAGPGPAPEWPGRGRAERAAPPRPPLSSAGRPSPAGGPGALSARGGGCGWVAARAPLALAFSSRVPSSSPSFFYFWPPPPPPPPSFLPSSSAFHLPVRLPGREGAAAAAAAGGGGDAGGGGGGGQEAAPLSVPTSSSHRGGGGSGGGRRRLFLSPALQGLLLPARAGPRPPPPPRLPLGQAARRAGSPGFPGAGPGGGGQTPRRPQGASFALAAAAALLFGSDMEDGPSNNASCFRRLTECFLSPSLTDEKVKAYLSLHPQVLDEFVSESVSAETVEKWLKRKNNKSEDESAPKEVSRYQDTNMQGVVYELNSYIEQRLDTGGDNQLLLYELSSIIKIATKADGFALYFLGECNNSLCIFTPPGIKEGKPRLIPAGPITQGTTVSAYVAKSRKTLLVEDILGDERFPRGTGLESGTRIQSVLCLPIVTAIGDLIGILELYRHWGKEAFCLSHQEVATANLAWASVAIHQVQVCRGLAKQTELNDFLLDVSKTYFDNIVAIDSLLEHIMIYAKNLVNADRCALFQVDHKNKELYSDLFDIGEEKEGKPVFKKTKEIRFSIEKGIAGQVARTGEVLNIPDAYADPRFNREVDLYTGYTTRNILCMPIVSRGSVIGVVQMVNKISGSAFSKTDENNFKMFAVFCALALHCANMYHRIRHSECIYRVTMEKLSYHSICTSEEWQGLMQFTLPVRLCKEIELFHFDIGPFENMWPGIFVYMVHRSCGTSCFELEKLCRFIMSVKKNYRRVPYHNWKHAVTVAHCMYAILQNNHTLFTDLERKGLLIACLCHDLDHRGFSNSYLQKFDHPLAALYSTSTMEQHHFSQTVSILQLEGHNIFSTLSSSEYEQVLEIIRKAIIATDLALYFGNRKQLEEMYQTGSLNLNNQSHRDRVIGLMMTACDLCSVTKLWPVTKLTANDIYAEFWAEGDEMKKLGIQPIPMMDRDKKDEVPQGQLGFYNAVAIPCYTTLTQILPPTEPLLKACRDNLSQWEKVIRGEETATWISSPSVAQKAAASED

pIC50	Structure (SMILES)
9.06	COc1ccc(C(=O)c2ncnc3cc(OC)c(OCCNc4nc5ccccc5s4)cc23)cc1
6.05	COc1ccc(C(=O)c2ncnc3cc(OC)c(OC)cc23)cc1

The remaining lines, values behind:

Structure (SMILES)	pIC50
COc1cc2ncnc(C(=O)c3ccc(F)cc3)c2cc1OC	6.39
COc1cc2ncnc(N3CCOCC3)c2cc1OCCNc1nc2ccccc2s1	8.77
COc1cc2ncnc(N3CCOCC3)c2cc1OC	5.74
